Measurements from US6355799B1, “Substituted benzene compounds, process for their preparation, and herbicidal and defoliant compositions containing them” (ISK Americas Incorporated, priority 1997, dated 2002).

Tests used:
Type in all cases: in vivo
[1] = tested on: redroot pigweed (Amaranthus retroflexus, AMARE); experiment: Pre-emerge test, greenhouse herbicide activity screening; settings: rated 14 days after application, 0 = no damage, 100 = complete death
Procedure, shortened: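 Rating: 0–100 visual injury, 14 DAA. Application: acetone, 187 l/ha, 15–1000 g ai/ha, flat-fan track sprayer with nozzle 40–45 cm above soil or canopy. Post-emerge runs used 0.25% v/v surfactant on 2–3 leaf plants.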

[2] = tested on: barnyardgrass (Echinochloa crus-galli, ECHCG); experiment: as above; settings: rated 14 days after application, 0 = no damage, 100 = complete death
Procedure, shortened: (§1)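 Sandy loam pots; pre-emerge: sown 1 d pre-spray, surface-watered after, then bottom-watered. Post-emerge: sown 8–21 d before, 2–3 leaf stage, + 0.25% v/v NIS, bottom-watered. Acetone, 187 l/ha track spray, 15–1000 g ai/ha. 0–100 injury score, day 14.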

[3] = tested on: common ragweed (Ambrosia artemisizfolia L., AMBEL); experiment: as above; settings: rated 14 days after application, 0 = no damage, 100 = complete death
Procedure, shortened: as §1

[4] = tested on: green foxtail (Setaria viridis, SETVI); experiment: as above; settings: rated 14 days after application, 0 = no damage, 100 = complete death
Procedure, shortened: as §1

[5] = tested on: ivyleaf morningglory (Ipomoea hederacea, IPOHE); experiment: as above; settings: rated 14 days after application, 0 = no damage, 100 = complete death
Procedure, shortened: as §1

[6] = tested on: johnsongrass (Sorghum halepense, SORHA); experiment: as above; settings: rated 14 days after application, 0 = no damage, 100 = complete death
Procedure, shortened: as §1

[7] = tested on: lambsquarters (Chenopodium album, CHEAL); experiment: as above; settings: rated 14 days after application, 0 = no damage, 100 = complete death
Procedure, shortened: as §1

[8] = tested on: large crabgrass (Digitaria sanguinalis, DIGSA); experiment: as above; settings: rated 14 days after application, 0 = no damage, 100 = complete death
Procedure, shortened: as §1

[9] = tested on: sicklepod (Cassia obtusifolia, CASOB); experiment: as above; settings: rated 14 days after application, 0 = no damage, 100 = complete death
Procedure, shortened: as §1

[10] = tested on: velvetleaf (Abutilon theophrasti, ABUTH); experiment: as above; settings: rated 14 days after application, 0 = no damage, 100 = complete death
Procedure, shortened: as §1

[11] = tested on: field corn (Zea mays L., var. Dekalb 535, CORN); experiment: Pre-emerge test, crop safety; settings: rated 14 days after application, 0 = no damage, 100 = complete death
Procedure, shortened: (§2)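 Visual ratings on a 0-100 scale (0 no damage, 100 all plants dead) were taken at 14 days after treatment. Rates of 15-1000 g ai/ha in acetone, 187 l/ha, were sprayed onto soil one day after planting (pre-emerge) or onto 2-3 leaf plants with 0.25% v/v surfactant (post-emerge).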

[12] = tested on: upland rice (Oryza sp., var. Tebonnet, RICE); experiment: Pre-emerge test, crop safety; settings: rated 14 days after application, 0 = no damage, 100 = complete death
Procedure, shortened: as §2

[13] = tested on: barnyardgrass (Echinochloa crus-galli, ECHCG); experiment: Post-emerge test, greenhouse herbicide activity screening; settings: post-emerge, 14 days after application, rating scale 0-100
Procedure, shortened: (§3)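 Plants grown in 10 cm pots of sandy loam mix received acetone-dissolved compounds through a moving flat-fan nozzle. Doses ranged from 15 to 1000 g ai/ha. Pre-emerge pots were seeded one day earlier, post-emerge pots 8–21 days earlier. Fourteen days on, each pot was graded 0–100 for damage.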

[14] = tested on: common ragweed (Ambrosia artemisizfolia L., AMBEL); experiment: as above; settings: post-emerge, 14 days after application, rating scale 0-100
Procedure, shortened: as §3

[15] = tested on: green foxtail (Setaria viridis, SETVI); experiment: as above; settings: post-emerge, 14 days after application, rating scale 0-100
Procedure, shortened: as §3

[16] = tested on: ivyleaf morningglory (Ipomoea hederacea, IPOHE); experiment: as above; settings: post-emerge, 14 days after application, rating scale 0-100
Procedure, shortened: as §3

[17] = tested on: johnsongrass (Sorghum halepense, SORHA); experiment: as above; settings: post-emerge, 14 days after application, rating scale 0-100
Procedure, shortened: as §3

[18] = tested on: lambsquarters (Chenopodium album, CHEAL); experiment: as above; settings: post-emerge, 14 days after application, rating scale 0-100
Procedure, shortened: as §3

[19] = tested on: large crabgrass (Digitaria sanguinalis, DIGSA); experiment: as above; settings: post-emerge, 14 days after application, rating scale 0-100
Procedure, shortened: as §3

[20] = tested on: redroot pigweed (Amaranthus retroflexus, AMARE); experiment: as above; settings: post-emerge, 14 days after application, rating scale 0-100
Procedure, shortened: as §3

[21] = tested on: sicklepod (Cassia obtusifolia, CASOB); experiment: as above; settings: post-emerge, 14 days after application, rating scale 0-100
Procedure, shortened: as §3

[22] = tested on: velvetleaf (Abutilon theophrasti, ABUTH); experiment: as above; settings: post-emerge, 14 days after application, rating scale 0-100
Procedure, shortened: as §3

[23] = tested on: field corn (Zea mays L., var. Dekalb 535, CORN); experiment: Post-emerge test, crop safety; settings: post-emerge, 14 days after application, rating scale 0-100
Procedure, shortened: as §1

[24] = tested on: upland rice (Oryza sp., var. Tebonnet, RICE); experiment: Post-emerge test, crop safety; settings: post-emerge, 14 days after application, rating scale 0-100
Procedure, shortened: as §1

COc1c(Cl)cc(F)c(-n2c(=O)cc(C(F)(F)F)n(C)c2=O)c1NC(=O)c1ccc(F)cc1F [Compound 2-42, 3-[4-chloro-2-(2,4difluorobenzoyl)amino-6-fluoro-3-methoxyphenyl]-1-methyl-6-trifluoromethyl-2,4(1H 3H)-pyrimidinedione]
Pre-emerge Herbicidal Activity, phytotoxicity rating (0-100), AMARE ([1]; 63 g ai/ha): 100
Pre-emerge Herbicidal Activity, phytotoxicity rating (0-100), AMARE ([1]; 250 g ai/ha): 100
Pre-emerge Herbicidal Activity, phytotoxicity rating (0-100), ECHCG ([2]; 63 g ai/ha): 100
Pre-emerge Herbicidal Activity, phytotoxicity rating (0-100), ECHCG ([2]; 250 g ai/ha): 100
Pre-emerge Herbicidal Activity, phytotoxicity rating (0-100), AMBEL ([3]; 63 g ai/ha): 100
Pre-emerge Herbicidal Activity, phytotoxicity rating (0-100), AMBEL ([3]; 250 g ai/ha): 100
Pre-emerge Herbicidal Activity, phytotoxicity rating (0-100), SETVI ([4]; 63 g ai/ha): 100
Pre-emerge Herbicidal Activity, phytotoxicity rating (0-100), SETVI ([4]; 250 g ai/ha): 100
Pre-emerge Herbicidal Activity, phytotoxicity rating (0-100), IPOHE ([5]; 63 g ai/ha): 100
Pre-emerge Herbicidal Activity, phytotoxicity rating (0-100), IPOHE ([5]; 250 g ai/ha): 100
Pre-emerge Herbicidal Activity, phytotoxicity rating (0-100), SORHA ([6]; 63 g ai/ha): 95
Pre-emerge Herbicidal Activity, phytotoxicity rating (0-100), SORHA ([6]; 250 g ai/ha): 100
Pre-emerge Herbicidal Activity, phytotoxicity rating (0-100), CHEAL ([7]; 63 g ai/ha): 100
Pre-emerge Herbicidal Activity, phytotoxicity rating (0-100), CHEAL ([7]; 250 g ai/ha): 100
Pre-emerge Herbicidal Activity, phytotoxicity rating (0-100), DIGSA ([8]; 63 g ai/ha): 100
Pre-emerge Herbicidal Activity, phytotoxicity rating (0-100), DIGSA ([8]; 250 g ai/ha): 100
Pre-emerge Herbicidal Activity, phytotoxicity rating (0-100), CASOB ([9]; 63 g ai/ha): 80
Pre-emerge Herbicidal Activity, phytotoxicity rating (0-100), CASOB ([9]; 250 g ai/ha): 100
Pre-emerge Herbicidal Activity, phytotoxicity rating (0-100), ABUTH ([10]; 63 g ai/ha): 100
Pre-emerge Herbicidal Activity, phytotoxicity rating (0-100), ABUTH ([10]; 250 g ai/ha): 100
Pre-emerge phytotoxicity rating (0-100), crop damage, CORN ([11]; 63 g ai/ha): 85
Pre-emerge phytotoxicity rating (0-100), crop damage, CORN ([11]; 250 g ai/ha): 98
Pre-emerge phytotoxicity rating (0-100), crop damage, RICE ([12]; 63 g ai/ha): 90
Pre-emerge phytotoxicity rating (0-100), crop damage, RICE ([12]; 250 g ai/ha): 99
phytotoxicity rating ECHCG ([13]; 63 g ai/ha): 30
phytotoxicity rating ECHCG ([13]; 250 g ai/ha): 80
phytotoxicity rating AMBEL ([14]; 63 g ai/ha): 70
phytotoxicity rating AMBEL ([14]; 250 g ai/ha): 95
phytotoxicity rating SETVI ([15]; 63 g ai/ha): 50
phytotoxicity rating SETVI ([15]; 250 g ai/ha): 80
phytotoxicity rating IPOHE ([16]; 63 g ai/ha): 100
phytotoxicity rating IPOHE ([16]; 250 g ai/ha): 100
phytotoxicity rating SORHA ([17]; 63 g ai/ha): 10
phytotoxicity rating SORHA ([17]; 250 g ai/ha): 95
phytotoxicity rating CHEAL ([18]; 63 g ai/ha): 90
phytotoxicity rating CHEAL ([18]; 250 g ai/ha): 100
phytotoxicity rating DIGSA ([19]; 63 g ai/ha): 0
phytotoxicity rating DIGSA ([19]; 250 g ai/ha): 30
phytotoxicity rating AMARE ([20]; 63 g ai/ha): 95
phytotoxicity rating AMARE ([20]; 250 g ai/ha): 100
phytotoxicity rating CASOB ([21]; 63 g ai/ha): 65
phytotoxicity rating CASOB ([21]; 250 g ai/ha): 100
phytotoxicity rating ABUTH ([22]; 63 g ai/ha): 100
phytotoxicity rating ABUTH ([22]; 250 g ai/ha): 100
phytotoxicity rating CORN ([23]; 63 g ai/ha): 10
phytotoxicity rating CORN ([23]; 250 g ai/ha): 60
phytotoxicity rating RICE ([24]; 63 g ai/ha): 60
phytotoxicity rating RICE ([24]; 250 g ai/ha): 90
